Biological target: T1, DRD1 (Homo sapiens, UniProt P21728)
T1 construct: purchased Promega (in-house HiBiT-GPCR construct library, NanoBRET)
Assay: NanoBRET screen HiBiT-DRD1 in HEK293
Assay type: binding
Method: Each tracer candidate was screened across the entire library of HiBiT-GPCR constructs using NanoBRET as the detection modality. As depicted in Figure 4A, the specificity of interactions was evaluated through decrease in BRET due to competitive displacement of a bound tracer by excess parental compound. Each tracer was analyzed for binding to each HiBiT-GPCR fusion in the absence and in the presence of competing parental compound. Briefly, HEK293 cells were transfected with HiBiT-GPCR constructs diluted into promoterless DNA to reduce expression and maximize translocation to the cell surface. Each tracer candidate was then screened at concentrations of 1 μM and 0.1 μM across cells expressing these fusions. Cells were treated for 1.5 h with tracer either alone or in the presence of 20 μM competing parental compound (i.e., control). BRET was measured upon addition of purified LgBiT and subsequent complementation with HiBiT genetically fused to a GPCR. The specificity of interactions was assessed through a decrease in BRET signal due to competitive displacement of the bound tracer. To further gauge the robustness of these interactions, the fold response over the control (i.e., BRETtracer/BRETcontrol) was calculated. We chose a 1.5-fold response, which translates to ≥7-fold signal over noise as the minimal threshold required to score an interaction as positive.
HiBiT-GPCR DNA constructs were diluted in 10 mM Tris pH 8 to a final concentration of 0.01 μg/μL, arrayed in 96-well plates and stored at −20 °C. For transfection, HEK293 cells were suspended in Opti-MEM (without phenol red) supplemented with 2% fetal bovine serum (Seradigm) and 100 units/mL penicillin–streptomycin (Gibco) at a final concentration of 220,000 cells/mL and dispensed into white 96-well plates at 90 μL/well. Subsequent transfections and screens were carried using an Agilent Bravo Automated Liquid Handling Platform. First, the 96-well HiBiT DNA arrays were diluted 25-fold in Opti-MEM (without serum or phenol red) to a final concentration of 0.0004 μg/μL and 20 μL of the diluted DNAs were transferred into new 96-well plates. Next, promoterless carrier DNA (1 μg/μL) was diluted 25-fold (0.04 μg/μL) and then dispensed into the diluted arrays at 20 μL/well. Following brief mixing, Viafect transfection reagent (Promega) diluted 16-fold into Opti-MEM was dispensed into the plates at 40 μL/well. After mixing by pipetting, plates were incubated for 10 min on the pipetting station deck. The DNA-transfection reagent complexes were then added to plates containing cells. To facilitate the screen, 10 μL of DNA-transfection reagent complexes were added in duplicates to the top 4 and bottom 4 rows, resulting in two identical 48-well arrays per plate. Plates with transfected cells were incubated for 18–20 h at 37 °C/5% CO2. A screen of each tracer across the entire library using two different concentrations requires duplicate plates of transfected cells. Depending on the number of tracers being screened, transfections can be scaled up using the same ratios. The next day, for each tracer, four 20× screening solutions in tracer dilution buffer (Promega) were prepared: two duplicates at final concentration of 20 μM and two duplicates at a final concentration of 2 μM. […] The four resulting solutions were diluted 4-fold in Opti-MEM without serum or phenol red to generate 5× solutions (5 µM and 0.5 µM tracer +/− 100 μM competing compound). To screen the library, a BioTek MultiFlo FX liquid dispenser was used to dispense 22.5 µL of tracer solution to the top 4 rows and 22.5 µL tracer + competing compound solution to the 4 bottom rows. Plates were briefly mixed on an orbital shaker and incubated for 1.5 h at room temperature. […] Plates were briefly mixed on an orbital shaker and incubated for 15 min to allow complementation.

T1 sequence (P21728 whole entry): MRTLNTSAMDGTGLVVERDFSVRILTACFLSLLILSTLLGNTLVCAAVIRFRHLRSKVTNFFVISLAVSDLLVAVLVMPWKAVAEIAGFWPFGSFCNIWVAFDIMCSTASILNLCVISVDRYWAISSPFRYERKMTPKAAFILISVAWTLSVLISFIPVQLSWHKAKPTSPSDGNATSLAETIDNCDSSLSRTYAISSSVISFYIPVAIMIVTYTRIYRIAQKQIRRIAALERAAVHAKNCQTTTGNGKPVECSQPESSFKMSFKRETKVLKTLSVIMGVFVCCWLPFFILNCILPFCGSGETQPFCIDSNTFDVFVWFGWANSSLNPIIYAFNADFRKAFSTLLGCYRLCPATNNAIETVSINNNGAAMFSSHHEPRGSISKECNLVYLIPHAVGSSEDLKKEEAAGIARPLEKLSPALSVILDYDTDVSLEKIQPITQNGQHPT

Row | Compound | NanoBRET Fold Response (DRD1, tracer 0.1μM) | NanoBRET Fold Response (DRD1, tracer 1μM) | further results
1 | CCOC(=O)c1cc(C#N)c(N2CCC(C(=O)NS(=O)(=O)Cc3ccccc3/C=C/C(=O)NCCNC(=O)CCc3ccc4n3[B-](F)(F)[N+]3=C(c5ccc[nH]5)C=CC3=C4)CC2)nc1C [AZD1283-1-NB590] | – | – | NanoBRET Fold Response (DRD1, 0.1μM): 1.07; NanoBRET Fold Response (DRD1, 1μM): 1.10
2 | N#CN/C(=N\CCNC(=O)c1ccc(N)cc1)NCCCOc1cccc(CN2CCCCC2)c1 [Aminopotentidine (unmodified)] | – | – | NanoBRET Fold Response (DRD1, other tracers/Aminopotentidine (unmodified), 0.1μM): 1.10; NanoBRET Fold Response (DRD1, other tracers/Aminopotentidine (unmodified), 1μM): 1.11
3 | N#CN=C(NCCCOc1cccc(CN2CCCCC2)c1)NCCNC(=O)CCOCCOCCOCCOCCNC(=O)CCc1ccc2n1[B-](F)(F)[N+]1=C(c3ccc[nH]3)C=CC1=C2 [Aminopotentidine-2-NB590] | 1.04 | 1.06 | –
4 | CN(C)CCC=C1c2ccccc2CCc2ccc(C(=O)NCCNC(=O)CCOCCOCCOCCOCCNC(=O)CCc3ccc4n3[B-](F)(F)[N+]3=C(c5ccc[nH]5)C=CC3=C4)cc21 [Amitriptyline-a-2-NB590] | – | – | NanoBRET Fold Response (tracer at 0.1μM): 1.04; NanoBRET Fold Response (tracer at 1μM): 1.23
5 | CN(C)CCC=C1c2ccccc2CCc2ccc(C(=O)NCCNC(=O)CCOCCOCCOCCOCCNC(=O)CCc3ccc4n3[B-](F)(F)[N+]3=C(c5ccc[nH]5)C=CC3=C4)cc21 [Amitriptyline-b-2-NB590] | – | – | NanoBRET Fold Response (tracer at 0.1μM, listed as amitriptyline-b-2-NB590): 1.39; NanoBRET Fold Response (tracer at 1μM, listed as amitriptyline-b-2-NB590): 1.97
6 | CN(CCC=C1c2ccccc2CCc2ccccc21)C(=O)CCOCCOCCOCCOCCNC(=O)CCc1ccc2n1[B-](F)(F)[N+]1=C(c3ccc[nH]3)C=CC1=C2 [Amitriptyline-e-2-NB590] | – | – | NanoBRET Fold Response (tracer at 1μM): 1.12
7 | COc1ccc2c(n1)c(CCNC(C)=O)cn2CCNC(=O)CCc1ccc2n1[B-](F)(F)[N+]1=C(c3ccc[nH]3)C=CC1=C2 [Azamelatonin-1-NB590] | – | – | NanoBRET Fold Response (0.1μM tracer): 0.92; NanoBRET Fold Response (1μM tracer): 0.96
8 | COc1ccc2[nH]c(-c3ccc(CNC(=O)CCOCCOCCOCCOCCNC(=O)CCc4ccc5n4[B-](F)(F)[N+]4=C(c6ccc[nH]6)C=CC4=C5)cc3)c(CCNC(C)=O)c2n1 [AzomelatoninICO9-2-NB590] | – | – | NanoBRET Fold Response (0.1μM tracer): 0.98; NanoBRET Fold Response (1μM tracer): 0.94
9 | O=C(CCOCCOCCOCCOCCNC(=O)CCc1ccc2n1[B-](F)(F)[N+]1=C(c3ccc[nH]3)C=CC1=C2)NCCCN1CCN(C2=Nc3cc(Cl)ccc3Nc3ccccc32)CC1 [Clozapine-a-2-NB590] | – | – | NanoBRET Fold Response (DRD1, 0.1μM tracer): 3.20; NanoBRET Fold Response (DRD1, 1μM tracer): 3.32
10 | O=C(CCOCCOCCOCCOCCNC(=O)CCc1ccc2n1[B-](F)(F)[N+]1=C(c3ccc[nH]3)C=CC1=C2)NCCCN1CCN(C2=Nc3ccccc3Oc3ccc(Cl)cc32)CC1 [Loxapine-a-2-NB590] | 1.65 | 2.64 | –
11 | COc1ccccc1N1CCN(CCCCN2C(=O)c3ccc(CNC(=O)CCOCCOCCOCCOCCNC(=O)CCc4ccc5n4[B-](F)(F)[N+]4=C(c6ccc[nH]6)C=CC4=C5)cc3C2=O)CC1 [NAN-190-2-NB590] | 1.23 | 1.53 | –
12 | COc1ccccc1N1CCN(CCCCN2C(=O)c3ccc(CNC(=O)CCOCCNC(=O)c4ccc(CNC(=O)CCc5ccc6n5[B-](F)(F)[N+]5=C(c7ccc[nH]7)C=CC5=C6)cc4)cc3C2=O)CC1 [NAN-190-3-NB590] | 1.75 | 1.32 | –
13 | O=C(CCc1ccc2n1[B-](F)(F)[N+]1=C(c3ccc[nH]3)C=CC1=C2)NCc1ccc(C(=O)NCCOCCC(=O)N[C@@H]2CC[C@@]3(O)[C@H]4Cc5ccc(O)c6c5[C@@]3(CCN4CC3CC3)[C@H]2O6)cc1 [Naltrexone-3-NB590] | 0.98 | 1.03 | –
14 | Cc1cc2c(s1)Nc1ccccc1N=C2N1CCN(CCCNC(=O)CCOCCOCCOCCOCCNC(=O)CCc2ccc3n2[B-](F)(F)[N+]2=C(c4ccc[nH]4)C=CC2=C3)CC1 [Olanzapine-a-2-NB590] | 2.04 | 3.08 | –
15 | O=C(CCc1ccc2n1[B-](F)(F)[N+]1=C(c3ccc[nH]3)C=CC1=C2)NCc1ccc(C(=O)NCCOCCOCCNCC(O)COc2cccc3ccccc23)cc1 (stereo not drawn) [Propranolol-3-NB590] | – | – | NanoBRET Fold Response (DRD1, 0.1μM): 1.01; NanoBRET Fold Response (DRD1, 1μM): 0.98
16 | O=C(CCc1ccc2n1[B-](F)(F)[N+]1=C(c3ccc[nH]3)C=CC1=C2)NCCOCCOCCNC(=O)OCCOCCN1CCN(C2=Nc3ccccc3Sc3ccccc32)CC1 [Quetiapine-a-2-NB590] | 1.65 | 1.97 | –
17 | Cc1nc2n(c(=O)c1CCN1CCC(c3noc4cc(F)ccc34)CC1)CCCC2OC(=O)NCCOCCOCCOCCOCCNC(=O)CCc1ccc2n1[B-](F)(F)[N+]1=C(c3ccc[nH]3)C=CC1=C2 (stereo not drawn) [Risperidone-2-NB590] | 2.20 | 2.38 | –
18 | CC(C)N(CC[C@H](c1ccccc1)c1cc(CCNC(=O)CCOCCOCCOCCOCCNC(=O)CCc2ccc3n2[B-](F)(F)[N+]2=C(c4ccc[nH]4)C=CC2=C3)ccc1O)C(C)C [Tolterodine-2-NB590] | 0.94 | 1.01 | –
19 | CC(C)N(CC[C@H](c1ccccc1)c1cc(CCNC(=O)c2ccc(CNC(=O)CCc3ccc4n3[B-](F)(F)[N+]3=C(c5ccc[nH]5)C=CC3=C4)cc2)ccc1O)C(C)C [Tolterodine-BZ-NB590] | 1.28 | 1.39 | –
20 | CCCn1c(=O)c2[nH]c(-c3ccc(OCC(=O)NCCNC(=O)CCOCCNC(=O)c4ccc(CNC(=O)CCc5ccc6n5[B-](F)(F)[N+]5=C(c7ccc[nH]7)C=CC5=C6)cc4)cc3)nc2n(CCC)c1=O [XAC-3-NB590] | 0.90 | 1.11 | –
